Values quoted from earlier work in PMC11187573, “Identification of SARS-CoV-2 Mpro inhibitors through deep reinforcement learning for de novo drug design and computational chemistry approaches” (RSC Medicinal Chemistry, 2024).

System: SARS, SARS-CoV-2 and MERS Mpro
Settings: Origin COVID_Moonshot; ref COVID Moonshot; cited from earlier work

Row | Compound | IC50
1 | COc1ccc(C2CC(c3cccs3)=NN2C(=O)CCl)cc1OC (stereo not shown) [MAT-POS-916a2c5a-1, COc(ccc(C(C1)N(C(CCl)=O)N=C1c1cccs1)c1)c1OC] | 1.87 µM
2 | O=C(CCl)N1CCN(S(=O)(=O)c2cccs2)CC1 [LON-WEI-8f408cad-3, O=C(CCl)N(CC1)CCN1S(c1cccs1)(=O)=O] | 2.16 µM
3 | COc1ccc(C2CC(c3ccccc3)=NN2C(=O)CCl)cc1OC (stereo not shown) [MED-COV-4280ac29-30, COc(ccc(C(C1)N(C(CCl)=O)N=C1c1ccccc1)c1)c1OC] | 0.543 µM
4 | O=C(CCl)N1CCN(Cc2cc(Cl)cc(Cl)c2)CC1 [PAU-UNI-8cdd41c7-1, O=C(CCl)N1CCN(Cc2cc(Cl)cc(Cl)c2)CC1] | 1.89 µM
5 | O=C(CCl)N1CCN(Cc2cccc(Cl)c2)CC1 [MED-COV-4280ac29-15, O=C(CCl)N1CCN(Cc2cccc(Cl)c2)CC1] | 2.84 µM
6 | CCOC(=O)c1nc(S(C)(=O)=O)ncc1Cl [LON-WEI-ff7b210a-5, CCOC(c(nc(nc1)S(C)(=O)=O)c1Cl)=O] | 1.6 µM

Same assay, conditions: Origin ChEMBL; ref ChEMBL; cited from earlier work

Row | Compound | IC50
7 | Cc1ccc(S(=O)(=O)/C=C/C#N)cc1 [CHEMBL403183, Cc(cc1)ccc1S(/C=C/C#N)(=O)=O] | 0.82 µM
8 | CNC(=O)ON(C(C)=O)C(=O)NC [CHEMBL9116, CC(N(C(NC)=O)OC(NC)=O)=O] | 1.33 µM
9 | C=C1C(=O)[C@]23[C@H](O)[C@H]1CC[C@@H]2[C@]12CO[C@]3(O)C[C@@H]1C(C)(C)CC[C@@H]2O [CHEMBL4303503, CC(C)(CC1)[C@@H](C[C@@]([C@@]([C@@H]2O)([C@@H]3CC[C@H]2C2=C)C2=O)(O)OC2)[C@@]23[C@H]1O] | 2.57 µM
10 | Nc1nc(S)c2ncn(C3OC(CO)C(O)C3O)c2n1 (stereo not shown) [CHEMBL119171, Nc(nc1S)nc2c1ncn2C(C1O)OC(CO)C1O] | 1.08 µM
11 | CN(C)C(=S)SSC(=S)N(C)C [CHEMBL120563, CN(C)C(SSC(N(C)C)=S)=S] | 0.05 µM
12 | Sc1nnc(Nc2ccccc2)s1 [CHEMBL289356, Sc1nnc(Nc2ccccc2)s1] | 0.39 µM
13 | O=C1C=Cc2cc(Br)ccc2C1=O [CHEMBL4303595, O=C(C=Cc1c2ccc(Br)c1)C2=O] | 0.1 µM
14 | NC(=O)c1ccc2c(c1)C(=O)C(=O)N2Cc1ccc2ccccc2c1 [CHEMBL358279, NC(c(cc1)cc(C2=O)c1N(Cc1cc3ccccc3cc1)C2=O)=O] | 0.245 µM

System: Mpro
Settings: ML dataset, Origin COVID_Moonshot; ref COVID Moonshot; cited from earlier work

Row | Compound | IC50
15 | COc1cccc(CC(=O)Nc2cncc3ccccc23)c1 [RAL-THA-2d450e86-11] | 30.5 µM
16 | O=C(NCCc1cccc(F)c1)C(c1cccnc1)N(Cc1ccccc1C1CCC1)C(=O)c1ccco1 (stereo not shown) [ALP-POS-b0bc6a46-10] | 1.93 µM
17 | O=C(NCCc1cccc(F)c1)C(c1cccnc1)N(C(=O)c1ccco1)c1ccc(C2CCCC2)cc1 (stereo not shown) [ALP-POS-b0bc6a46-5] | 0.282 µM
18 | O=C(Cc1ccc(Cl)c(Cl)c1)Nc1cncc2cnccc12 [VLA-UNK-82501c2c-1] | 1.85 µM
19 | O=C(Cc1cccc(Cl)c1)Nc1cncc2c1CCC2 | 4.91 µM
20 | O=C(Cc1cc(Cl)cc(Cc2ccn[nH]2)c1)Nc1cncc2ccccc12 [PET-UNK-372a2f82-1] | 7.22 µM
21 | Cn1c(=O)[nH]c2cncc(NC(=O)C3CCOc4ccc(Cl)cc43)c21 (stereo not shown) | 20.7 µM
22 | COc1ccc(N(C(=O)c2c[nH]cn2)C(C(=O)NCCc2cccc(F)c2)c2cccnc2)cc1 (stereo not shown) [BRU-THA-92256091-19] | 93.7 µM
23 | O=C(Nc1cncc2ccccc12)C(CO)c1ccc(Cl)c(Cl)c1 (stereo not shown) [MAT-POS-fce787c2-11] | 19.3 µM
24 | CC(C)Oc1ccc(N(C(=O)c2cocn2)C(C(=O)NCCc2cccc(F)c2)c2cccnc2)cc1 (stereo not shown) [ALP-POS-ced8ea4d-12] | 0.609 µM
25 | O=C(Cc1cccc(Cl)c1)Nc1n[nH]c2ccc(F)cc12 [EDJ-MED-c8e7a002-9] | 94 µM
26 | O=C(NCCc1cccc(F)c1)C(c1cccnc1)N(C(=O)c1cocn1)c1ccc(Cn2cccn2)cc1 (stereo not shown) [ALP-POS-ced8ea4d-16] | 8.34 µM
27 | O=C(Cc1cncnc1)Nc1cc(F)cc(OC2CC(=O)N2)c1 (stereo not shown) | 24.9 µM
28 | O=C(NCCc1cccc(F)c1)C(c1cccnc1)N(C(=O)c1cocn1)c1ccc2scnc2c1 (stereo not shown) [ALP-POS-ced8ea4d-36] | 84 µM
29 | COc1ccc(CC(=O)Nc2cncc3ccccc23)cc1 [RAL-THA-2d450e86-4] | 72.5 µM
30 | CS(=O)(=O)Cc1ccc(N(C(=O)c2cocn2)C(C(=O)NCCc2cccc(F)c2)c2cccnc2)cc1 (stereo not shown) [ALP-POS-ced8ea4d-11] | 27.7 µM
31 | CC(C)(C)c1ccc(N(C(=O)c2cocn2)C(C(=O)NC2COC2)c2cccnc2)cc1 (stereo not shown) [ALP-POS-88a7a97e-34] | 4.07 µM
32 | CS(=O)(=O)c1ccc(N2CCNCC2)cc1 | 91.6 µM
33 | O=C(Cc1ccc(C(F)(F)F)cc1)Nc1cncc2ccccc12 [RAL-THA-2d450e86-32] | 24.8 µM

Row | Compound | IC50
34 | Cc1c(N)cncc1NC(=O)Cc1cccc(Cl)c1 | 6.21 µM
35 | O=C(Cc1cccc(C(F)(F)F)c1)Nc1cncc2ccccc12 [RAL-THA-2d450e86-31] | 6.94 µM
36 | COc1cc(Cl)cc(OC(=O)Nc2cccnc2)c1 [AGN-NEW-891393a6-1] | 4.1 µM
37 | COC(=O)C(C)NC(=O)C(c1cccnc1)N(C(=O)c1cocn1)c1ccc(C(C)(C)C)cc1 (stereo not shown) [ALP-POS-88a7a97e-5] | 7.18 µM
38 | Cc1cc(C(F)(F)F)nc2n[nH]c(NC(=O)Cc3cccc(Cl)c3)c12 [EDJ-MED-c8e7a002-5] | 90.7 µM
39 | O=C(c1cc(=O)[nH]c2ccccc12)N1CCN(c2ccccc2)CC1 [MAT-POS-916a2c5a-4, MAT-POS-916a2c5a-4, Mpro-x3303] | 19 µM
40 | CN1C(=O)CCc2cc(N(C(=O)c3cocn3)C(C(=O)NCCc3cccc(F)c3)c3cccnc3)ccc21 (stereo not shown) [ALP-POS-ced8ea4d-1] | 63.5 µM
41 | O=C(Nc1cncc2ccccc12)C(NCC1CC1)c1ccc(Cl)c(Cl)c1 (stereo not shown) [MAT-POS-1f3f1a6f-4] | 1.75 µM
42 | Cn1ncc(C(=O)N(c2ccc(C(C)(C)C)cc2)C(C(=O)NCCc2cccc(F)c2)c2cccnc2)n1 (stereo not shown) [ALP-POS-305f6ec3-46] | 17.6 µM
43 | O=C(Nc1cncc2c1CNCC2)C1CCOc2ccc(Cl)cc21 (stereo not shown) | 6.16 µM
44 | O=C(Cc1cc(Cl)cc(OC2CC(=O)N2)c1)Nc1cncc2ccccc12 (stereo not shown) [ALP-POS-3b848b35-2, O=C(Cc1cc(Cl)cc(OC2CC(=O)N2)c1)Nc1cncc2ccccc12, reference compound] | 0.18 µM
45 | Cc1ccncc1NC(=O)Nc1cccc(Cl)c1 | 55.1 µM
46 | Cc1ccncc1NC(=O)Cc1cc(Cl)cc(-c2ccc(C3CC3(F)F)cc2)c1 (stereo not shown) [MAT-POS-f42f3716-1] | 5.64 µM
47 | CN1C(=O)CC(O)(C(=O)Nc2cncc3ccccc23)c2cc(Cl)ccc21 (stereo not shown) [MAT-POS-f9802937-2] | 20.7 µM
48 | Cc1ccncc1NC(=O)Cc1cc(Cl)cc(S(N)(=O)=O)c1 [RAL-THA-6b94ceba-13] | 13.9 µM
49 | O=C(Cc1cc(Cl)cc(-c2nnc[nH]2)c1)Nc1cncc2ccccc12 [RAL-THA-1d44ff04-8] | 5.3 µM
50 | CC(C)(C)c1ccc(N(C(=O)c2cc(CO)[nH]n2)C(C(=O)NCCc2cccc(F)c2)c2cccnc2)cc1 (stereo not shown) [ALP-POS-305f6ec3-38] | 18.8 µM
51 | Cc1ccncc1NC(=O)Cc1cc(C#N)cc(OC2CC(=O)N2)c1 (stereo not shown) [TRY-UNI-2eddb1ff-6] | 10.1 µM
52 | O=C(C[C@]1(C(=O)Nc2cncc3ccccc23)CCOc2ccc(Cl)cc21)N1CCN(C2CCOC2)CC1 (stereo partly shown) [ALP-POS-5bb456a5-8] | 1.99 µM

Row | Compound | IC50
53 | O=C(NCCc1cccc(F)c1)C(c1cccnc1)N(C(=O)c1cocn1)c1cn(Cc2ccccc2)cn1 (stereo not shown) [ALP-POS-ced8ea4d-35] | 27.3 µM
54 | O=C(Cc1cc(Cl)cc(OC2CCC(=O)N2)c1)Nc1cncc2ccccc12 (stereo not shown) [MAT-POS-9ff17035-1] | 85.9 µM
55 | Cc1ccc(CC(=O)Nc2cncc3ccccc23)cc1Cl [RAL-THA-2d450e86-8] | 1.09 µM
56 | O=C(Nc1cccnc1)c1cc(Cl)ccc1-c1ccccc1 [CHR-SOS-7098f804-14] | 39.1 µM
57 | CC(C)(C)c1ccc(N(C(=O)c2cocn2)C(C(=O)NCCc2cccc(F)c2)c2cnccn2)cc1 (stereo not shown) [ALP-POS-d0876c20-21] | 1.21 µM
58 | O=C(Cn1nnc2ccccc21)N(Cc1ccsc1)c1ccc(N2CCOCC2)cc1 [ALP-POS-6d04362c-4] | 16.5 µM
59 | CC(C)(C)c1ccc(N(C(=O)c2c[nH]c(=O)cn2)C(C(=O)NCCc2cccc(F)c2)c2cccnc2)cc1 (stereo not shown) [ALP-POS-305f6ec3-33] | 77.1 µM
60 | COc1ccccc1OCCC(=O)Nc1cncc2ccccc12 [MAR-UCB-f313ec4d-3] | 90.9 µM
61 | CC(C)Cn1cc(NC(=O)NCc2ccco2)c2ccccc2c1=O [LON-WEI-4d77710c-44] | 29.6 µM
62 | Cc1ccncc1C(C(=O)NCCc1cccc(F)c1)N(C(=O)c1ccco1)c1ccc(C(C)(C)C)cc1 (stereo not shown) [ALP-POS-02c6a514-44] | 0.112 µM
63 | CCc1cc(F)ccc1-c1cc(Cl)cc(CC(=O)Nc2cnccc2C)c1 [MAT-POS-f42f3716-4] | 28.8 µM
64 | O=C(Cc1ccc(Cl)cc1)Nc1cncc2ccccc12 [RAL-THA-2d450e86-2] | 23.7 µM
65 | COC(=O)C1CC(NC(=O)C(c2cccnc2)N(C(=O)c2cocn2)c2ccc(C(C)(C)C)cc2)C1 (stereo not shown) [ALP-POS-88a7a97e-15] | 3.99 µM
66 | CC(C)(C)c1cnc(N(C(=O)c2ccco2)C(C(=O)NCCc2cccc(F)c2)c2cccnc2)s1 (stereo not shown) [ALP-POS-b0bc6a46-12] | 3.94 µM
67 | O=C1CC(Oc2cc(Cl)cc(N(CCC3CCCCC3)C(=O)Nc3cncc4ccccc34)c2)N1 (stereo not shown) [MAT-POS-53907a1c-3, O=C(Nc1cncc2ccccc12)N(CCC1CCCCC1)c1cc(Cl)cc(OC(C2)NC2=O)c1, reference compound] | 0.84 µM
68 | O=C(NCCc1cccc(F)c1)C(c1cccnc1)N(C(=O)c1cocn1)c1ccc(C(F)(F)F)nc1 (stereo not shown) [ALP-POS-ced8ea4d-37] | 36.4 µM
69 | O=C(NCCc1cccc(F)c1)C(c1cccnc1)N(C(=O)c1cocn1)c1ccccc1 (stereo not shown) [ALP-POS-ced8ea4d-28] | 89.2 µM
70 | O=C(Nc1cccnc1)N(CCC1CCCCC1)c1cccc(Cl)c1 | 3.18 µM

Same assay, conditions: ML dataset, Origin ChEMBL; ref ChEMBL; cited from earlier work

Row | Compound | IC50
71 | O=[N+]([O-])c1cc(C(F)(F)F)ccc1S(=O)(=O)c1ccc(Cl)cc1 [CHEMBL380403] | 12 µM
72 | O=C(Oc1cncc(Cl)c1)c1cc2ccccc2s1 [CHEMBL222893, O=C(c1cc(cccc2)c2s1)Oc1cc(Cl)cnc1, reference compound] | 0.095 µM
73 | Cc1noc(NC(=O)c2ccc(-c3cc(C(F)(F)F)nn3C)s2)c1[N+](=O)[O-] [CHEMBL427404, Cc1noc(NC(c2ccc(-c3cc(C(F)(F)F)nn3C)s2)=O)c1[N+]([O-])=O, reference compound] | 5 µM
